Reference: ChEMBL document CHEMBL4396868, “Discovery of Potent, Selective, and Brain-Penetrant 1 H-Pyrazol-5-yl-1 H-pyrrolo[2,3- b]pyridines as Anaplastic Lymphoma Kinase (ALK) Inhibitors” (J Med Chem, 2019)
Active and inactive are the calls of the source. The rule behind the calls is not given here.

Columns and labels:
[1] = target: MAP kinase-activated protein kinase 2 (Homo sapiens) (UniProt P49137); experiment: Inhibition of MAPKAPK2 (unknown origin) at 100 nM by [gamma-33P]ATP-based radiometric or Alphascreen assay relative to control
[2] = Drug level in Jcl-ICR mouse plasma at 100 mg/kg, ip measured at 0.5 hrs by LC/MS/MS analysis; type: ADME, organism-based
MDR1 (ABCB1, P-gp) = MDR1 (ABCB1, P-gp) (Homo sapiens, UniProt P08183); experiment: Substrate activity at human MDR1 expressed in pig LLC-PK1 cells assessed as efflux ratio of apparent permeability across basolateral to apical over apical to basolateral side at 10 uM after 2 hrs by LC/MS/MS analysis; type: ADME, cell-based
[3] = Unbound brain-to-plasma concentration ratio in Jcl-ICR mouse at 100 mg/kg, ip measured at 1 hr by LC/MS/MS analysis; type: ADME, organism-based; details: read-out: K(p,uu,brain)
[4] = target: Phosphatidylinositol 4,5-bisphosphate 3-kinase catalytic subunit alpha isoform (Homo sapiens) (UniProt P42336); experiment: Inhibition of PI3Kalpha (unknown origin) at 100 nM by [gamma-33P]ATP-based radiometric or Alphascreen assay relative to control
[5] = target: Casein kinase I isoform delta (Homo sapiens) (UniProt P48730); experiment: Inhibition of CK1delta (unknown origin) at 100 nM by [gamma-33P]ATP-based radiometric or Alphascreen assay relative to control
Chain of Casein kinase I isoform delta (Homo sapiens) (P48730 whole entry, looked up, the tested form may be a part, canonical isoform): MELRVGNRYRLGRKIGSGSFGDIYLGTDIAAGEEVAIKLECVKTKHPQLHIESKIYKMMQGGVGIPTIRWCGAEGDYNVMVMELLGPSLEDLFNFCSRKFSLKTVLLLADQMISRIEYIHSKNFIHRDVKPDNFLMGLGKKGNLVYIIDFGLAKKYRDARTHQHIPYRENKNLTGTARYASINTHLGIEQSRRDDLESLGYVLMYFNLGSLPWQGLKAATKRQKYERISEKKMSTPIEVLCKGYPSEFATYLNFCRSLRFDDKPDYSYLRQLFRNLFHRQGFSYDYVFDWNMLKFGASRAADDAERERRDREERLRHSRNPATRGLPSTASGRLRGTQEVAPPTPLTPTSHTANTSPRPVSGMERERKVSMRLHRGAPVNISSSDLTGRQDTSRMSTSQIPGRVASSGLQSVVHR

[6] = target: T1, High affinity nerve growth factor receptor (Homo sapiens, UniProt P04629); experiment: Inhibition of N-terminal GST-tagged human TrkA kinase domain (436 to 790 residues) expressed in baculovirus expression system using biotin-poly-GT as substrate pre-incubated for 5 mins followed by ATP addition and measured after 60 mins by alpha screen assay
Target sequence in this assay (P04629 whole entry, the tested form may be a part): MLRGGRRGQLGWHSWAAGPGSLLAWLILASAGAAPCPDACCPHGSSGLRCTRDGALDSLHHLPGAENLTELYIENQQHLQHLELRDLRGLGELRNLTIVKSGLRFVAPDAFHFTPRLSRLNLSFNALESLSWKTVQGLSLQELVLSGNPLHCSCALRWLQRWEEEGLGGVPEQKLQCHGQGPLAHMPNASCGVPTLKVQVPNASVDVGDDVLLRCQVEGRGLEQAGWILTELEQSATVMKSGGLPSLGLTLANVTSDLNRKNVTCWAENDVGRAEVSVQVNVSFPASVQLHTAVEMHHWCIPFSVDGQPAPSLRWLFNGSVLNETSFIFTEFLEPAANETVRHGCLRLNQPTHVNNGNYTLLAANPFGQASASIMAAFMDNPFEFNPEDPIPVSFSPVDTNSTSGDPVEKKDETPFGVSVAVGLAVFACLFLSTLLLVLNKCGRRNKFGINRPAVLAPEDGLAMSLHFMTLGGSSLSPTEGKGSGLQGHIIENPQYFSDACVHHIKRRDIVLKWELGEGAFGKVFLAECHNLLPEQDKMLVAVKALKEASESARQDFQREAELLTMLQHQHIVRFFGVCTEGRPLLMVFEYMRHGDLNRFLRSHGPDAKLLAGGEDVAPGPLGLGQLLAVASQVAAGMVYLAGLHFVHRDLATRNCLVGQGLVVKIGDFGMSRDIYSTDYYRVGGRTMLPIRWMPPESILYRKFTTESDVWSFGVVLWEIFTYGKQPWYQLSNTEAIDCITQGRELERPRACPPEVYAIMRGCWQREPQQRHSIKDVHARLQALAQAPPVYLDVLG

[7] = target: T2, ALK tyrosine kinase receptor (Homo sapiens, UniProt Q9UM73); type: cell-based, HEK293
T2 sequence (Q9UM73 whole entry): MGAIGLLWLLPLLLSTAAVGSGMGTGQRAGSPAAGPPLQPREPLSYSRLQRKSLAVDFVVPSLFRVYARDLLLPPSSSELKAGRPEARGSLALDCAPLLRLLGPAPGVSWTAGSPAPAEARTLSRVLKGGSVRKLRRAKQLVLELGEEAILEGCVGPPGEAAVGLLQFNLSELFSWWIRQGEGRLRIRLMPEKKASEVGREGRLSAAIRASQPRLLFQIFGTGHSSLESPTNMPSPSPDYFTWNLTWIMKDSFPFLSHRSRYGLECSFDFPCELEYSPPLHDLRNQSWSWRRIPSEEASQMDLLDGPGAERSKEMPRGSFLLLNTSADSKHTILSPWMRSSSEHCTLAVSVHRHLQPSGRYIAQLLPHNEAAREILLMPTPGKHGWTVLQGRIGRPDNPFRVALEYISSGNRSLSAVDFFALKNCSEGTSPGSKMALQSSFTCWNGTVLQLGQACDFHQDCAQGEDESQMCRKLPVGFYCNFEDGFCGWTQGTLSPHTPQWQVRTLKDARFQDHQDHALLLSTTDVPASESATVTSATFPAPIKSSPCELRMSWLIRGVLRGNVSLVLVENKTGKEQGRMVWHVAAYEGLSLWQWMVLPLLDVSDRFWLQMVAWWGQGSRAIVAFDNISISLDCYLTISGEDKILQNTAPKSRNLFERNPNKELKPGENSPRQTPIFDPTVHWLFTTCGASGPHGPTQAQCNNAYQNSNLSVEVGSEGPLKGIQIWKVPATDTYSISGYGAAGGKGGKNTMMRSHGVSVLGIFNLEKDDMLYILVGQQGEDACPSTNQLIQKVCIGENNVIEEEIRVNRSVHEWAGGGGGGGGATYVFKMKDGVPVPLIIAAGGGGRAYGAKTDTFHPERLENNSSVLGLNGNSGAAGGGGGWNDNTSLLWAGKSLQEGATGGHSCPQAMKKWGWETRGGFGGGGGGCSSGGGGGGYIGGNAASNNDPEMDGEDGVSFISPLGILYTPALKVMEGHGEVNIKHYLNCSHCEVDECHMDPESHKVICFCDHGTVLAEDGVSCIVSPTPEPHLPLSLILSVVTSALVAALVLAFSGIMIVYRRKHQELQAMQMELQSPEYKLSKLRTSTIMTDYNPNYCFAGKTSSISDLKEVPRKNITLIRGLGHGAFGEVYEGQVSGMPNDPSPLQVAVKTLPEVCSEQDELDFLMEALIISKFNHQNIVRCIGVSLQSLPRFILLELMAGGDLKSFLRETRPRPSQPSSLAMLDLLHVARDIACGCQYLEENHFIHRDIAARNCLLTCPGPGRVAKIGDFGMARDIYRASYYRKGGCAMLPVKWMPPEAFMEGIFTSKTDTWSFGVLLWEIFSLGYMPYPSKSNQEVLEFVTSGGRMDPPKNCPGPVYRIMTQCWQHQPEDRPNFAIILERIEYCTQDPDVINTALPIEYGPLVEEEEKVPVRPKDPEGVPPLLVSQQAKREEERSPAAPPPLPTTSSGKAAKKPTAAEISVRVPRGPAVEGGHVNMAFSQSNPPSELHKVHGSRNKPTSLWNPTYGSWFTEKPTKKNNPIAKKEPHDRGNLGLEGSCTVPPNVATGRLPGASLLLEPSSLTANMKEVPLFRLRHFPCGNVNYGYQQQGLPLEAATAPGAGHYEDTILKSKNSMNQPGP
Description: Inhibition of recombinant human ALK expressed in HEK293 cells assessed as reduction in ALK autophosphorylation at Tyr1604 residue incubated for 60 mins by sandwich ELISA

[8] = Brain to plasma partition coefficient, Kp of the compound in Jcl-ICR mouse at 100 mg/kg, ip measured at 1 hr by LC/MS/MS analysis; type: ADME, organism-based
[9] = Unbound brain-to-plasma concentration ratio in Jcl-ICR mouse at 100 mg/kg, ip measured at 2 hrs by LC/MS/MS analysis; type: ADME, organism-based; details: read-out: K(p,uu,brain)
[10] = target: Proto-oncogene tyrosine-protein kinase Src (Homo sapiens) (UniProt P12931); experiment: Inhibition of recombinant human full-length N-terminal His6-tagged SRC expressed in Sf21 insect cells at 100 nM preincubated for 5 mins followed by ATP addition and measured after 10 mins by alphascreen assay relative to control
[11] = target: Protein kinase C theta type (Homo sapiens) (UniProt Q04759); experiment: Inhibition of N-terminal FLAG-tagged PKCtheta (unknown origin) expressed in baculovirus expression system at 100 nM using pGS peptide as substrate preincubated for 5 mins followed by [gamma-33P]ATP addition and measured after 30 mins by topcount scintillation counting method relative to control
Mus musculus = experiment: In-vivo inhibition of ALK in ICR mouse prefrontal cortex assessed as reduction in phosphorylated ALK level at 100 mg/kg, ip after 1 hr by Western blot analysis; type: functional, organism-based
[12] = Drug level in Jcl-ICR mouse brain at 100 mg/kg, ip measured at 2 hr by LC/MS/MS analysis; type: ADME, organism-based; details: read-out: Drug uptake
[13] = target: cAMP-dependent protein kinase catalytic subunit alpha (Homo sapiens) (UniProt P17612); experiment: Inhibition of PKA (unknown origin) expressed in Escherichia coli at 100 nM using PKA substrate peptide preincubated for 5 mins followed by [gamma-33P]ATP addition and measured after 10 mins by topcount scintillation counting method relative to control
[14] = target: Insulin receptor (Homo sapiens) (UniProt P06213); experiment: Inhibition of IRK (unknown origin) at 100 nM by [gamma-33P]ATP-based radiometric or Alphascreen assay relative to control
[15] = target: Mitogen-activated protein kinase 14 (Homo sapiens) (UniProt Q16539); experiment: Inhibition of N-terminal FLAG-tagged p38alpha (unknown origin) expressed in baculovirus expression system at 100 nM using myelin basic protein as substrate preincubated for 5 mins followed by [gamma-33P]ATP addition and measured after 60 mins by topcount scintillation counting method relative to control
[16] = Drug level in Jcl-ICR mouse brain at 100 mg/kg, ip measured at 0.5 hrs by LC/MS/MS analysis; type: ADME, organism-based; details: read-out: Drug uptake
[17] = target: Aurora kinase B (Homo sapiens) (UniProt Q96GD4); experiment: Inhibition of N-terminal His6-tagged AuroraB (unknown origin) expressed in baculovirus expression system at 100 nM using aurora peptide as substrate preincubated for 5 mins followed by [gamma-33P]ATP addition and measured after 60 mins by topcount scintillation counting method relative to control
[18] = Fraction unbound in ICR mouse brain at 1 umol/L measured for 16 to 20 hrs by equilibrium dialysis based LC-MS/MS analysis; type: ADME, tissue-based; details: 1 µM
[19] = target: Rho-associated protein kinase 1 (Homo sapiens) (UniProt Q13464); experiment: Inhibition of ROCK1 (unknown origin) at 100 nM by [gamma-33P]ATP-based radiometric or Alphascreen assay relative to control
[20] = Drug level in Jcl-ICR mouse plasma at 100 mg/kg, ip measured at 1 hr by LC/MS/MS analysis; type: ADME, organism-based
[21] = target: T2, ALK tyrosine kinase receptor
Description: Inhibition of human ALK kinase domain (1058 to 1620 residues) expressed in baculovirus expression system using biotin-poly-GT as substrate pre-incubated for 10 mins followed by ATP addition and measured after 60 mins by HTRF method

Homo sapiens = species: Homo sapiens; experiment: Selectivity ratio of IC50 for human FAK kinase domain (411 to 686 residues) expressed in baculovirus expression system to IC50 for human ALK kinase domain (1058 to 1620 residues) expressed in baculovirus expression system
[22] = target: Serine/threonine-protein kinase PLK1 (Homo sapiens) (UniProt P53350); experiment: Inhibition of N-terminal FLAG-tagged PLK1 (unknown origin) expressed in baculovirus expression system at 100 nM using alpha-casein as substrate preincubated for 5 mins followed by [gamma-33P]ATP addition and measured after 40 mins by topcount scintillation counting method relative to control
[23] = Drug level in Jcl-ICR mouse plasma at 100 mg/kg, ip measured at 2 hr by LC/MS/MS analysis; type: ADME, organism-based
[24] = Brain to plasma partition coefficient, Kp of the compound in Jcl-ICR mouse at 100 mg/kg, ip measured at 2 hrs by LC/MS/MS analysis; type: ADME, organism-based
[25] = target: T1, High affinity nerve growth factor receptor; experiment: Inhibition of TRKA (unknown origin) at 100 nM by [gamma-33P]ATP-based radiometric or Alphascreen assay relative to control
Target sequence in this assay (P04629 33-796 limits assumed): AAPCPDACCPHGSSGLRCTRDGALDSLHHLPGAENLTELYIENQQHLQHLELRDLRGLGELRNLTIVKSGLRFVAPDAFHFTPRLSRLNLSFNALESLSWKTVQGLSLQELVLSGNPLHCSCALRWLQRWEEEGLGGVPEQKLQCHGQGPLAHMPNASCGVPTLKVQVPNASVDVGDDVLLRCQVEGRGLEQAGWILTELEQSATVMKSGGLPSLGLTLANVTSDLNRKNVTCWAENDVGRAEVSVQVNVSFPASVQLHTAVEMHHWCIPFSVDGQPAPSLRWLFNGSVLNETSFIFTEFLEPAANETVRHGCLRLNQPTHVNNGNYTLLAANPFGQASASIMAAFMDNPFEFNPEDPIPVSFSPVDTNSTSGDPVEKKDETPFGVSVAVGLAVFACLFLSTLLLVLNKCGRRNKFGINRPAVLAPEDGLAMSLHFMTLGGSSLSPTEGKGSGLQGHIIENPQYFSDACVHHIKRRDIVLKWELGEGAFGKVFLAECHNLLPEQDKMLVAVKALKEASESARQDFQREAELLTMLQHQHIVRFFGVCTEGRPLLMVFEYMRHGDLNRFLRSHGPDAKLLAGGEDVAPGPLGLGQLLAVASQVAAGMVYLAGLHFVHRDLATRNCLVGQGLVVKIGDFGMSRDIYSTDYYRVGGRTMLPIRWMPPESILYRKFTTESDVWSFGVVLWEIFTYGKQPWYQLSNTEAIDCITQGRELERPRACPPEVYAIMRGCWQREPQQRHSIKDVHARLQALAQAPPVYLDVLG

[26] = target: Interleukin-1 receptor-associated kinase 4 (Homo sapiens) (UniProt Q9NWZ3); experiment: Inhibition of IRAK4 (unknown origin) at 100 nM by [gamma-33P]ATP-based radiometric or Alphascreen assay relative to control
[27] = target: Vascular endothelial growth factor receptor 2 (Homo sapiens) (UniProt P35968); experiment: Inhibition of N-terminal FLAG-tagged VEGFR2 (unknown origin) expressed in baculovirus expression system at 100 nM preincubated for 5 mins followed by ATP addition and measured after 10 mins by alphascreen assay relative to control
Chain of Vascular endothelial growth factor receptor 2 (Homo sapiens) (P35968 whole entry): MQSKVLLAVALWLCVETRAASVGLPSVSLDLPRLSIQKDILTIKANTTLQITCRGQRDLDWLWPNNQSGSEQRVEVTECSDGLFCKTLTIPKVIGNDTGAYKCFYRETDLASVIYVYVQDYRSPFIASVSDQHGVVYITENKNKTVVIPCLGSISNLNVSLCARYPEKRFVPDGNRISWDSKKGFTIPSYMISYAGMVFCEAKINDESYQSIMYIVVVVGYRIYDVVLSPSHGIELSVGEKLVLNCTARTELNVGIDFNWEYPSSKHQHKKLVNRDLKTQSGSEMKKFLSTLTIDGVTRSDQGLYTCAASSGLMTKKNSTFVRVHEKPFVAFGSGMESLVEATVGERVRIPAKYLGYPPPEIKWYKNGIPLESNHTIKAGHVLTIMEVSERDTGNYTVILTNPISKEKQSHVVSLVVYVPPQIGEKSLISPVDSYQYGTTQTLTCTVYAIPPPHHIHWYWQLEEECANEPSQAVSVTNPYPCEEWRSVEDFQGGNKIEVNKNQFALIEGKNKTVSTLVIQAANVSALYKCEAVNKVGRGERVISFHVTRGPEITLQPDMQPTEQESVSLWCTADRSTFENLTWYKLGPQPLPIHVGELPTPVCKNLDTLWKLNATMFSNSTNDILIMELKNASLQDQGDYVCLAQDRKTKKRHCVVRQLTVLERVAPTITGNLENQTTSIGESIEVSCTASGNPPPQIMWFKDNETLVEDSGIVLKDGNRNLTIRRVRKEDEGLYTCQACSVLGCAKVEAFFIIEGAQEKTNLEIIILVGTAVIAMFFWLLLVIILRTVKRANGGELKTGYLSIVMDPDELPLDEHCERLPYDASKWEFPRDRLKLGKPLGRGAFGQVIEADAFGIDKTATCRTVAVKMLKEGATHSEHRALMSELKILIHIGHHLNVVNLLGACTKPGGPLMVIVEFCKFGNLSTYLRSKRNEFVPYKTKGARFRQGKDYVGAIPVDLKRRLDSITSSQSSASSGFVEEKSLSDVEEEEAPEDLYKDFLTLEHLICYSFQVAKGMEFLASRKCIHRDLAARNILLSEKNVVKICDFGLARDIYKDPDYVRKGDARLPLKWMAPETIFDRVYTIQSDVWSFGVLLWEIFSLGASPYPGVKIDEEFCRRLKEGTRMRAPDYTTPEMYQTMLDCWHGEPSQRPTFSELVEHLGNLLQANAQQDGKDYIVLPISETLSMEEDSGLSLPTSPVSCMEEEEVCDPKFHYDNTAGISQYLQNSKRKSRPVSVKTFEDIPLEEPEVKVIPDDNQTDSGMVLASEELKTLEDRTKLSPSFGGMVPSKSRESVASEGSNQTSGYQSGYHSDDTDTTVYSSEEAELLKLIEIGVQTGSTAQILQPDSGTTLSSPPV

SMILES: Cc1cc(-n2cc(C(=O)N3CCO[C@@H](C)C3)c3ccc(O[C@@H](C)c4ccc(F)cn4)nc32)n[nH]1
- inhibition [1]: 3%
- concentration at 0.5 h [2]: 26200 ng/mL
- efflux ratio at 2 h, 10 µM (MDR1 (ABCB1, P-gp)): 1
- Kp uu at 1 h [3]: 0.27
- inhibition [4]: -2%
- inhibition [5]: 6%
- IC50 [6]: 2600 nM
- IC50 [7]: 27 nM
- Kp at 1 h [8]: 1.28
- Kp uu at 2 h [9]: 0.11
- inhibition [10]: -2%
- inhibition [11]: 2%
- inhibition (Mus musculus): Active
- concentration at 2 h [12]: 10300 ng/mL
- inhibition [13]: 12%
- inhibition [14]: 2%
- inhibition [15]: -4%
- concentration at 0.5 h [16]: 33000 ng/mL
- inhibition [17]: 21%
- Fu [18]: 0.017%
- inhibition [19]: -5%
- concentration at 1 h [20]: 26200 ng/mL
- IC50 [21]: 2.9 nM
- Ratio IC50 (Homo sapiens): 10
- inhibition [22]: 5%
- concentration at 2 h [23]: 11600 ng/mL
- Kp at 2 h [24]: 0.515
- inhibition [25]: 9%
- inhibition [26]: -7%
- inhibition [27]: 2%
